Holding throughout (parameters): species or system AML cell lines (8); Primary HTS, single concentration about 10 uM, Cell Titer Glo viability; log10 luminescence, per cent inhibition relative to cycloheximide control
Conditions in all cases: 72 h, relative to cycloheximide control, log10 luminescence, inhibitor
Background: ATP-based viability assays read luminescence as a measure of living cells.

Experiment [1] relates to ML-2.
The test system of experiment [2] is MV4-11.
Experiment [3] relates to U937.
Experiment [4] deals with CMS.
For experiment [5], the system named is MOLM-13.
The subject of experiment [6] is M07e.
For experiment [7], the system named is CHRF288-11.
The subject of experiment [8] is CMK.

Where two headings read alike, the source gives them in different places.

In the case of `CCn1c(-c2nonc2N)nc2cncc(C(=O)N3CCNCC3)c21` [SJ000573047-1, TP100582-069A1], in experiment [1], the ML-2 %inh is 1.727%. Besides, the MV4-11 %inh in experiment [2] worked out at 2.106%. The U937 %inh in experiment [3] is on record as 1.348%. In experiment [4], the CMS %inh came to 1.245%. Further, in experiment [5], the MOLM-13 %inh came to 0.2835%. Also, the M07e %inh in experiment [6] is listed as 4.058%. Also, in experiment [7], the CHRF288-11 %inh is -1.797%. The CMK %inh in experiment [8] is -1.515%.

For `Nc1ncnc2occ(-c3ccc(NC(=O)Nc4cc(C(F)(F)F)ccc4F)cc3)c12` [SJ000573048-1, CL210513-029A3 | T299/89/1 | YF46626-103A2], the ML-2 %inh in experiment [1] (ML-2 %inh, 10 µM) was 1.043%. The MV4-11 %inh in experiment [2] (MV4-11 %inh, 10 µM) is given as 68.76%. Also, the U937 %inh in experiment [3] (U937 %inh, 10 µM) is 17.4%. Besides, in experiment [4] (CMS %inh, 10 µM), the CMS %inh is listed as 8.741%. For the same molecule, in experiment [5] (MOLM-13 %inh, 10 µM), the MOLM-13 %inh is 82.99%. In addition, the M07e %inh in experiment [6] (M07e %inh, 10 µM) is listed as 14.83%. Further, the CHRF288-11 %inh in experiment [7] (CHRF288-11 %inh, 10 µM) turned out to be 26.14%. Further, the CMK %inh in experiment [8] (CMK %inh, 10 µM) is reported as 31.71%.

On to `Nc1ncnc2occ(-c3ccc(NC(=O)Nc4cc(C(F)(F)F)ccc4F)cc3)c12` [SJ000573048-2, CL210513-029A3 | T299/89/1 | YF46626-103A2], for which the ML-2 %inh in experiment [1] (ML-2 %inh, 10 µM) is 4.549%. In addition, the MV4-11 %inh in experiment [2] (MV4-11 %inh, 10 µM) is given as 78.92%. The U937 %inh in experiment [3] (U937 %inh, 10 µM) is 50.36%. Further, the CMS %inh in experiment [4] (CMS %inh, 10 µM) stood at 10.62%. The MOLM-13 %inh in experiment [5] (MOLM-13 %inh, 10 µM) amounted to 99.82%. Further, the M07e %inh in experiment [6] (M07e %inh, 10 µM) is recorded as 28.03%. Moreover, the CHRF288-11 %inh in experiment [7] (CHRF288-11 %inh, 10 µM) was 5.114%. Besides, the CMK %inh in experiment [8] (CMK %inh, 10 µM) came to 82.88%.

For the molecule `Cc1cc(O)cc(C)c1/C=C/c1cncc(-c2nn[nH]n2)c1` [SJ000573052-1, T252/80/1], the ML-2 %inh in experiment [1] is -1.281%. The MV4-11 %inh in experiment [2] is recorded as -3.299%. The U937 %inh in experiment [3] is -3.239%. Also, in experiment [4], the CMS %inh is listed as -2.3%. Also, the MOLM-13 %inh in experiment [5] is recorded as -1.521%. For the same molecule, the M07e %inh in experiment [6] was -1.115%. The CHRF288-11 %inh in experiment [7] is -3.388%. In experiment [8], the CMK %inh is -5.146%.

As for `CN(C)C(=O)O[C@H]1CN[C@H](C#Cc2cc3ncnc(Nc4ccc(OCc5cccc(F)c5)c(Cl)c4)c3s2)C1` [SJ000573053-1, U20298/139/1 | U20747/39/1], the ML-2 %inh in experiment [1] was 5.015%. Also, in experiment [2], the MV4-11 %inh amounted to 4.747%. Moreover, the U937 %inh in experiment [3] is recorded as -0.4617%. In experiment [4], the CMS %inh was 2.516%. The MOLM-13 %inh in experiment [5] is -0.949%. In addition, the M07e %inh in experiment [6] came to 1.476%. For the same molecule, in experiment [7], the CHRF288-11 %inh was 65.04%. The CMK %inh in experiment [8] was -4.087%.

Consider `CN(C)C(=O)O[C@@H]1CN[C@@H](C#Cc2cc3ncnc(Nc4ccc(OCc5cccc(F)c5)c(Cl)c4)c3s2)C1` [SJ000573053-2, U20298/139/1 | U20747/39/1], for which, in experiment [1], the ML-2 %inh stood at 1.706%. Moreover, the MV4-11 %inh in experiment [2] was -0.77%. Moreover, the U937 %inh in experiment [3] worked out at 3.489%. For the same molecule, the CMS %inh in experiment [4] was determined as 4.277%. In experiment [5], the MOLM-13 %inh is on record as -3.067%. Moreover, the M07e %inh in experiment [6] is reported as -1.206%. Further, the CHRF288-11 %inh in experiment [7] was 39.41%. The CMK %inh in experiment [8] is on record as -4.505%.

`COc1cccc(-n2cnc3c(N/N=C/c4ccncc4)ncnc32)c1` [SJ000573055-1, U17791/62/2]: the ML-2 %inh in experiment [1] is reported as -0.9344%. The MV4-11 %inh in experiment [2] turned out to be 22.16%. The U937 %inh in experiment [3] came out at 6.107%. Also, the CMS %inh in experiment [4] stood at 0.1507%. In addition, the MOLM-13 %inh in experiment [5] was 29.19%. Moreover, in experiment [6], the M07e %inh worked out at 2.779%. In experiment [7], the CHRF288-11 %inh was 0.9652%. Also, the CMK %inh in experiment [8] worked out at 9.137%.

On to `CN1CCN(C(=O)c2ccc(NC(=O)Nc3ccc(N(C)c4ccnc(Nc5ccc(CS(C)(=O)=O)cc5)n4)cc3)cc2)CC1` [SJ000573056-1, U17983/92/5], for which, in experiment [1], the ML-2 %inh stood at 10.8%. For the same molecule, the MV4-11 %inh in experiment [2] is reported as 82.16%. In addition, the U937 %inh in experiment [3] is 5.393%. In addition, the CMS %inh in experiment [4] is -2.808%. Also, the MOLM-13 %inh in experiment [5] came out at 94.26%. Further, the M07e %inh in experiment [6] was -6.05%. Moreover, the CHRF288-11 %inh in experiment [7] came to 0.03637%. Moreover, the CMK %inh in experiment [8] came out at 6.346%.

Consider `Cc1ccc2c(-c3ccnc(Nc4cccc(C(F)(F)F)c4)n3)c(-c3ccccc3)nn2n1` [SJ000573057-1, U18020/146/1], for which the ML-2 %inh in experiment [1] is given as 9.435%. In experiment [2], the MV4-11 %inh is listed as 9.271%. The U937 %inh in experiment [3] came out at 5.106%. In addition, in experiment [4], the CMS %inh worked out at 10.95%. Also, in experiment [5], the MOLM-13 %inh was -0.1836%. The M07e %inh in experiment [6] is 0.344%. Also, the CHRF288-11 %inh in experiment [7] was -3.995%. In addition, in experiment [8], the CMK %inh is 8.756%.

On to `COc1cc(C=NNc2ncnc3c2cnn3Cc2ccccc2)ccc1O` [SJ000573058-1, T237/25/8], for which the ML-2 %inh in experiment [1] came out at 0.3051%. In experiment [2], the MV4-11 %inh was -3.195%. For the same molecule, in experiment [3], the U937 %inh is on record as -2.319%. Also, the CMS %inh in experiment [4] is recorded as -1.754%. The MOLM-13 %inh in experiment [5] is on record as -1.629%. Moreover, the M07e %inh in experiment [6] is recorded as -2.447%. Also, in experiment [7], the CHRF288-11 %inh is given as -7.429%. In addition, in experiment [8], the CMK %inh was -3.542%.

Turning to `COc1ccc(C2=C(N3CCc4ccccc43)C(=O)NC2=O)cc1` [SJ000573061-1, DH97836-162A1], the ML-2 %inh in experiment [1] turned out to be 4.148%. Moreover, the MV4-11 %inh in experiment [2] was 5.926%. Besides, the U937 %inh in experiment [3] was 9.443%. Besides, the CMS %inh in experiment [4] stood at 1.472%. Further, in experiment [5], the MOLM-13 %inh is on record as -1.299%. For the same molecule, the M07e %inh in experiment [6] was found to be 1.612%. The CHRF288-11 %inh in experiment [7] is 16.97%. Moreover, in experiment [8], the CMK %inh worked out at 1.284%.

Regarding `CCc1cccc(CC)c1/C=C/c1cncc(C(=O)NC)c1` [SJ000573062-1, U12068/83/1], the ML-2 %inh in experiment [1] was 7.466%. Moreover, the MV4-11 %inh in experiment [2] is listed as -0.1109%. The U937 %inh in experiment [3] was 29.57%. In addition, the CMS %inh in experiment [4] amounted to 0.8952%. Also, in experiment [5], the MOLM-13 %inh came to 18.25%. Moreover, the M07e %inh in experiment [6] was 15.2%. Besides, the CHRF288-11 %inh in experiment [7] is given as 36.66%. The CMK %inh in experiment [8] is given as 82.75%.

As to `COc1cc(Nc2ncc3c(C)nc(-c4cccc(Oc5ccccc5)c4)n3n2)cc(OC)c1OC` [SJ000573063-1, U19891/44/1], the ML-2 %inh in experiment [1] was found to be 2.68%. The MV4-11 %inh in experiment [2] was determined as 46.32%. In addition, the U937 %inh in experiment [3] was determined as 10.08%. In addition, in experiment [4], the CMS %inh came to 22.07%. Also, in experiment [5], the MOLM-13 %inh is listed as 53.84%. Further, the M07e %inh in experiment [6] amounted to 11.27%. Moreover, the CHRF288-11 %inh in experiment [7] was found to be 8.926%. Further, in experiment [8], the CMK %inh was determined as 25.77%.

Take `CCN1CCC(CC(=O)Nc2n[nH]c3nnc(-c4cccc(F)c4F)cc23)CC1` [SJ000573064-1, VB101259-076A3]: the ML-2 %inh in experiment [1] worked out at 6.747%. In addition, the MV4-11 %inh in experiment [2] amounted to 39.53%. Moreover, the U937 %inh in experiment [3] was 13.36%. In addition, the CMS %inh in experiment [4] was 104.4%. In addition, the MOLM-13 %inh in experiment [5] is given as 13.03%. Moreover, the M07e %inh in experiment [6] amounted to 13.75%. In addition, in experiment [7], the CHRF288-11 %inh came out at 30.8%. For the same molecule, the CMK %inh in experiment [8] came out at 96.65%.

With `Cn1cc(C=C2C(=O)Nc3cccnc32)c2ccccc21` [SJ000573065-1, U14362/24/1 | GW-441756 | GW441756], the ML-2 %inh in experiment [1] is recorded as -1.442%. For the same molecule, the MV4-11 %inh in experiment [2] is listed as 36.15%. The U937 %inh in experiment [3] is on record as -3.233%. The CMS %inh in experiment [4] is given as -3.947%. Also, in experiment [5], the MOLM-13 %inh amounted to 21.32%. For the same molecule, the M07e %inh in experiment [6] is given as -6.294%. Besides, in experiment [7], the CHRF288-11 %inh is on record as -4.894%. Besides, the CMK %inh in experiment [8] was found to be 2.086%.

As for `NCc1ccc(-n2c(-c3nonc3N)nc3cnccc32)cc1` [SJ000573066-1, CP100101-172A1], in experiment [1], the ML-2 %inh is recorded as 11.91%. Further, the MV4-11 %inh in experiment [2] was 62.53%. Besides, in experiment [3], the U937 %inh is reported as 21.07%. In addition, the CMS %inh in experiment [4] was found to be 11.21%. Besides, the MOLM-13 %inh in experiment [5] was 27.71%. In addition, the M07e %inh in experiment [6] was 5.233%. Besides, the CHRF288-11 %inh in experiment [7] is 11.55%. In experiment [8], the CMK %inh is given as 18.18%.

The values are drawn from article PMC6522510 (Nature Communications, 2019).
